Test results taken from patent US20230131899A1, “INHIBITORS OF MICROBIALLY INDUCED AMYLOID” (Axial Therapeutics, Inc., priority 2020, published 2023).
Read-outs that look alike come from different tables or passages of the source.

Tested on: CsgA gene expression (csgBAC promoter-GFP reporter) in E. coli UTI89
Test: In vitro live cell fluorescent reporter assay of CsgA transcription (Reporter Assay)
Assay type: cell-based
How it was run: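 Compounds at 0.14–100 μM (1% DMSO final) incubated 20 h at 27 °C in YESCA broth with UTI89 carrying a single-copy GFP reporter under the csgBAC intergenic promoter region, inoculum OD600 0.003. Fluorescence normalized to vehicle wells gave IC50 and 50%-of-vehicle concentration; OD600 reduction >10% flagged growth impact.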

[1] = Escherichia coli, read-out: Reporter Assay Abs IC50 (μM), median Abs IC50 in the CsgA reporter assay, N/A = maximum expression reduction is <50% of control
[2] = Escherichia coli, read-out: Reporter Assay Abs IC50, activity range, class symbol
[3] = Escherichia coli, read-out: Reporter Assay Abs IC50 (activity range), median Abs IC50 in the CsgA reporter assay, class symbol

SMILES	IC50 [1] [µM]	IC50 [2] [µM]	IC50 (read-out: Reporter Assay Abs IC50 (activity range), median Abs IC50 in the CsgA reporter assay, class symbol) [µM]	IC50 (read-out: Reporter Assay Abs IC50, median Abs IC50 in the CsgA reporter assay, N/A = maximum expression reduction is <50% of control) [µM]	IC50 [3] [µM]
CC(C)N1CC(C(=O)O)n2c1c(-c1cccc(C(F)(F)F)c1)c(Cc1cccc3ccccc13)c(Cl)c2=O (stereo not drawn) [Compound 179, 6-chloro-1-isopropyl-7-(naphthalen-1-ylmethyl)-5-oxo-8-(3-(trifluoromethyl)phenyl)-1,2,3,5-tetrahydroimidazo[1,2-a]pyridine-3-carboxylic acid]	1.4	1.3 to 4.5	–	–	–
CCCN1CC(C(=O)O)n2c(c(-c3cccc(C(F)(F)F)c3)c(C(F)(F)c3cccc4ccccc34)cc2=O)S1(=O)=O (stereo not drawn) [Compound 138, 8-(difluoro(naphthalen-1-yl)methyl)-6-oxo-2-propyl-9-(3-(trifluoromethyl)phenyl)-3,4-dihydro-2H,6H-pyrido[1,2-e][1,2,5]thiadiazine-4-carboxylic acid 1,1-dioxide]	2.5	1.3 to 4.5	–	–	–
CCCN1CC(C(=O)O)n2c(c(-c3cccc(C(F)(F)F)c3)c(Cc3cccc4ccccc34)cc2=O)S1(=O)=O (single isomer, unassigned) [Compound 016b, 8-(naphthalen-1-ylmethyl)-6-oxo-2-propyl-9-(3-(trifluoromethyl)phenyl)-3,4-dihydro-2H,6H-pyrido[1,2-e][1,2,5]thiadiazine-4-carboxylic acid 1,1-dioxide]	–	–	4.6 to 10	6.6	–
CCCN1CC(C(=O)O)n2c(c(-c3cccc(C(F)(F)F)c3)c(Cc3cccc4ccccc34)c(NC(=O)C(C)C)c2=O)S1(=O)=O (stereo not drawn) [Compound 152, 7-isobutyramido-8-(naphthalen-1-ylmethyl)-6-oxo-2-propyl-9-(3-(trifluoromethyl)phenyl)-3,4-dihydro-2H,6H-pyrido[1,2-e][1,2,5]thiadiazine-4-carboxylic acid 1,1-dioxide]	11.4	> 10	–	–	–
CCNC(=O)c1c(Cc2cccc3ccccc23)c(-c2cccc(C(F)(F)F)c2)c2n(c1=O)C(C(=O)O)CN(C)S2(=O)=O (stereo not drawn) [Compound 156, 7-(ethylcarbamoyl)-2-methyl-8-(naphthalen-1-ylmethyl)-6-oxo-9-(3-(trifluoromethyl)phenyl)-3,4-dihydro-2H,6H-pyrido[1,2-e][1,2,5] thiadiazine-4-carboxylic acid 1,1-dioxide]	9.3	4.6 to 10	–	–	–
O=C(O)C1CN(Cc2ccncc2)c2c(-c3cccc(C(F)(F)F)c3)c(Cc3cccc4ccccc34)c(Cl)c(=O)n21 (stereo not drawn) [Compound 174, 6-chloro-7-(naphthalen-1-ylmethyl)-5-oxo-1-(pyridin-4-ylmethyl)-8-(3-(trifluoromethyl)phenyl)-1,2,3,5-tetrahydroimidazo[1,2-a]pyridine-3-carboxylic acid]	4.4	1.3 to 4.5	–	–	–
O=C(O)C1CN(C[C@H](O)CO)S(=O)(=O)c2c(-c3cccc(C(F)(F)F)c3)c(Cc3cccc4ccccc34)cc(=O)n21 (stereo partly drawn) [Compound 065a, 2-((S)-2,3-dihydroxypropyl)-8-(naphthalen-1-ylmethyl)-6-oxo-9-(3-(trifluoromethyl)phenyl)-3,4-dihydro-2H,6H-pyrido[1,2-e][1,2,5]thiadiazine-4-carboxylic acid 1,1-dioxide]	24.5	–	–	–	> 10
O=C(O)C1CN(Cc2ccccc2)c2c(-c3cccc(C(F)(F)F)c3)c(Cc3cccc4ccccc34)cc(=O)n21 (stereo not drawn) [Compound 187, 1-benzyl-7-(naphthalen-1-ylmethyl)-5-oxo-8-(3-(trifluoromethyl)phenyl)-1,2,3,5-tetrahydroimidazo[1,2-a]pyridine-3-carboxylic acid]	19	> 10	–	–	–
Cn1c(=O)c2c(nc(CCCCCN3CC(C(=O)O)n4c(c(-c5cccc(C(F)(F)F)c5)c(Cc5cccc6ccccc56)cc4=O)S3(=O)=O)n2C)n(C)c1=O (stereo not drawn) [Compound 045, 8-(naphthalen-1-ylmethyl)-6-oxo-9-(3-(trifluoromethyl)phenyl)-2-(5-(1,3,7-trimethyl-2,6-dioxo-2,3,6,7-tetrahydro-1H-purin-8-yl)pentyl)-3,4-dihydro-2H,6H-pyrido[1,2-e][1,2,5]thiadiazine-4-carboxylic acid 1,1-dioxide]	1.3	–	–	–	1.3 to 4.5
CN1CC(C(=O)O)n2c(c(-c3cccc(C(F)(F)F)c3)c(Cc3cccc4ccccc34)c(C(=O)N3CCOCC3)c2=O)S1(=O)=O (stereo not drawn) [Compound 160, 2-methyl-7-(morpholine-4-carbonyl)-8-(naphthalen-1-ylmethyl)-6-oxo-9-(3-(trifluoromethyl)phenyl)-3,4-dihydro-2H,6H-pyrido[1,2-e][1,2,5] thiadiazine-4-carboxylic acid 1,1-dioxide]	65.8	> 10	–	–	–
Cn1c(=O)c2c(ncn2CCCCN2CC(C(=O)O)n3c(c(-c4cccc(C(F)(F)F)c4)c(Cc4cccc5ccccc45)cc3=O)S2(=O)=O)n(C)c1=O (stereo not drawn) [Compound 033, 2-(4-(1,3-dimethyl-2,6-dioxo-1,2,3,6-tetrahydro-7H-purin-7-yl)butyl)-8-(naphthalen-1-ylmethyl)-6-oxo-9-(3-(trifluoromethyl)phenyl)-3,4-dihydro-2H,6H-pyrido[1,2-e][1,2,5]thiadiazine-4-carboxylic acid 1,1-dioxide]	3.3	–	–	–	1.3 to 4.5
CCCN1CC(C(=O)O)n2c(c(-c3cccc(C(F)(F)F)c3)c(Cc3cccc4ccccc34)c(Cl)c2=O)S1(=O)=O (stereo not drawn) [Compound 142, 7-chloro-8-(naphthalen-1-ylmethyl)-6-oxo-2-propyl-9-(3-(trifluoromethyl)phenyl)-3,4-dihydro-2H,6H-pyrido[1,2-e][1,2,5]thiadiazine-4-carboxylic acid 1,1-dioxide]	2.3	1.3 to 4.5	–	–	–
O=C(O)C1CN(CCCCCCN2CC(C(=O)O)n3c2c(-c2cccc(C(F)(F)F)c2)c(Cc2cccc4ccccc24)c(Cl)c3=O)c2c(-c3cccc(C(F)(F)F)c3)c(Cc3cccc4ccccc34)c(Cl)c(=O)n21 (stereo not drawn) [Compound 193, 1,1′-(hexane-1,6-diyl)bis(6-chloro-7-(naphthalen-1-ylmethyl)-5-oxo-8-(3-(trifluoromethyl)phenyl)-1,2,3,5-tetrahydroimidazo[1,2-a]pyridine-3-carboxylic acid)]	0.6	< 1.3	–	–	–
O=C(O)C1CN(Cc2ccccc2)c2c(-c3cccc(Br)c3)c(Cc3cccc4ccccc34)c(Cl)c(=O)n21 (stereo not drawn) [Compound 198, 1-benzyl-8-(3-bromophenyl)-6-chloro-7-(naphthalen-1-ylmethyl)-5-oxo-1,2,3,5-tetrahydroimidazo[1,2-a]pyridine-3-carboxylic acid]	5	4.6 to 10	–	–	–
NC(=O)c1c(Cc2cccc3ccccc23)c(-c2cccc(C(F)(F)F)c2)c2n(c1=O)C(C(=O)O)CN(C1CCCC1)S2(=O)=O (stereo not drawn) [Compound 176, 7-carbamoyl-2-cyclopentyl-8-(naphthalen-1-ylmethyl)-6-oxo-9-(3-(trifluoromethyl)phenyl)-3,4-dihydro-2H,6H-pyrido[1,2-e][1,2,5]thiadiazine-4-carboxylic acid 1,1-dioxide]	1.3	1.3 to 4.5	–	–	–
O=C(O)C1CN(Cc2cccnc2)c2c(-c3cccc(C(F)(F)F)c3)c(Cc3cccc4ccccc34)c(Cl)c(=O)n21 (stereo not drawn) [Compound 169, 6-chloro-7-(naphthalen-1-ylmethyl)-5-oxo-1-(pyridin-3-ylmethyl)-8-(3-(trifluoromethyl)phenyl)-1,2,3,5-tetrahydroimidazo[1,2-a]pyridine-3-carboxylic acid]	3.8	1.3 to 4.5	–	–	–
O=C(O)C1CN(C[C@H](O)[C@@H](O)[C@H](O)[C@H](O)CO)S(=O)(=O)c2c(-c3cccc(C(F)(F)F)c3)c(Cc3cccc4ccccc34)cc(=O)n21 (mixture of isomers) [Compound 066, 8-(naphthalen-1-ylmethyl)-6-oxo-2-((2S,3R,4R,5R)-2,3,4,5,6-pentahydroxyhexyl)-9-(3-(trifluoromethyl)phenyl)-3,4-dihydro-2H,6H-pyrido[1,2-e][1,2,5]thiadiazine-4-carboxylic acid 1,1-dioxide]	40.2	–	–	–	> 10
CCCCCN1CC(C(=O)O)n2c(c(-c3cccc(C(F)(F)F)c3)c(Cc3cccc4ccccc34)cc2=O)S1(=O)=O (single isomer, unassigned) [Compound 025a, 8-(naphthalen-1-ylmethyl)-6-oxo-2-pentyl-9-(3-(trifluoromethyl)phenyl)-3,4-dihydro-2H,6H-pyrido[1,2-e][1,2,5]thiadiazine-4-carboxylic acid 1,1-dioxide]	2	–	–	–	1.3 to 4.5
CCCNC(=O)c1c(Cc2cccc3ccccc23)c(-c2cccc(C(F)(F)F)c2)c2n(c1=O)C(C(=O)O)CN(C)S2(=O)=O (stereo not drawn) [Compound 154, 2-methyl-8-(naphthalen-1-ylmethyl)-6-oxo-7-(propylcarbamoyl)-9-(3-(trifluoromethyl)phenyl)-3,4-dihydro-2H,6H-pyrido[1,2-e][1,2,5]thiadiazine-4-carboxylic acid 1,1-dioxide]	6.1	4.6 to 10	–	–	–
CN(C)C(=O)c1c(Cc2cccc3ccccc23)c(-c2cccc(C(F)(F)F)c2)c2n(c1=O)C(C(=O)O)CN(C)S2(=O)=O (stereo not drawn) [Compound 173, 7-(dimethylcarbamoyl)-2-methyl-8-(naphthalen-1-ylmethyl)-6-oxo-9-(3-(trifluoromethyl)phenyl)-3,4-dihydro-2H,6H-pyrido[1,2-e] [1,2,5] thiadiazine-4-carboxylic acid 1,1-dioxide]	6.7	4.6 to 10	–	–	–
CCCN1CC(C(=O)O)n2c(c(-c3cccc(C(F)(F)F)c3)c(Cc3cccc4ccccc34)c(NC(=O)CC)c2=O)S1(=O)=O (stereo not drawn) [Compound 153, 8-(naphthalen-1-ylmethyl)-6-oxo-7-propionamido-2-propyl-9-(3-(trifluoromethyl)phenyl)-3,4-dihydro-2H,6H-pyrido[1,2-e][1,2,5]thiadiazine-4-carboxylic acid 1,1-dioxide]	16.6	> 10	–	–	–
